Experimental data taken from patent publication US4698336A, “3-(pyrrolidinio)methyl-3-cephem derivatives” (Eisai Co., Ltd., priority 1985, dated 1987).
Converted amounts (≈) assume the structure as drawn.

Experiments:
[1] = test system: Escherichia coli NIHJ; assay: Antibacterial activity (MIC), Escherichia coli NIHJ; format: cell-based
[2] = test system: Staphylococcus aureus 209-P; assay: Antibacterial activity (MIC), Staphylococcus aureus 209-P; format: cell-based
[3] = test system: Pseudomonas maltophilia E04004; assay: Antibacterial activity (MIC), Pseudomonas maltophilia E04004; format: cell-based; settings: Stenotrophomonas maltophilia
[4] = test system: Pseudomonas aeruginosa EP-01; assay: Antibacterial activity (MIC), Pseudomonas aeruginosa EP-01; format: cell-based; settings: EP01
[5] = test system: Serratia marcescens ES-75; assay: Antibacterial activity (MIC), Serratia marcescens ES-75; format: cell-based; settings: ES75
[6] = test system: Citrobacter freundii EC-34; assay: Antibacterial activity (MIC), Citrobacter freundii EC-34; format: cell-based; settings: EC34; Citrobacter freundii EC-34, β Lactamase producing bacteria
[7] = test system: Staphylococcus aureus E31106; assay: Antibacterial activity (MIC), Staphylococcus aureus E31106; format: cell-based; settings: Staphylococcus aureus E31106, β Lactamase producing bacteria
[8] = Acute toxicity, LD50 (mouse, intravenous injection); settings: in vivo
Excerpt: Acute toxicity [LD50 (mouse, intravenous injection)] of the following compounds was more than 3 g/kg.

Row | SMILES | MIC [1] [µg/mL] | MIC [2] [µg/mL] | MIC [3] [µg/mL] | MIC [4] [µg/mL] | MIC [5] [µg/mL] | MIC [6] [µg/mL] | MIC [7] [µg/mL] | LD50 [8] [mg/kg]
1 | CO/N=C(\C(=O)N[C@@H]1C(=O)N2C(C(=O)[O-])=C(C[N@+]3(C)CCC[C@H]3C(N)=O)CS[C@H]12)c1csc(N)n1 [Control Compound, reference compound] | 0.1 (≈ 0.191 µM) | 1.56 (≈ 2.98 µM) | 12.5 (≈ 23.9 µM) | 6.25 (≈ 11.9 µM) | 0.2 (≈ 0.382 µM) | 0.2 (≈ 0.382 µM) | 50 (≈ 95.5 µM) | –
2 | CO/N=C(\C(=O)N[C@@H]1C(=O)N2C(C(=O)[O-])=C(C[N@+]3(C)CCC[C@H]3CO)CS[C@H]12)c1nsc(N)n1 [Example 1-A, 7β-[2-(5-Amino-1,2,4-thiadiazol-3-yl)-(Z)-2-methoxyiminoacetamido]-3-[(2S)-hydroxymethyl-(1S)-methylpyrrolidinio]methyl-3-cephem-4-carboxylate] | 0.025 (≈ 0.0489 µM) | 1.56 (≈ 3.05 µM) | 6.25 (≈ 12.2 µM) | 0.8 (≈ 1.56 µM) | 0.1 (≈ 0.195 µM) | 0.05 (≈ 0.0977 µM) | 6.25 (≈ 12.2 µM) | > 3000
3 | CO/N=C(\C(=O)N[C@@H]1C(=O)N2C(C(=O)[O-])=C(C[N@@+]3(C)CCC[C@H]3CO)CS[C@H]12)c1nsc(N)n1 [Example 1-B, 7β-[2-(5-Amino-1,2,4-thiadiazol-3-yl)-(Z)-2-methoxyiminoacetamido]-3-[ (2S)-hydroxymethyl-(1R)-methylpyrrolidinio]methyl-3-cephem-4-carboxylate] | 0.1 (≈ 0.195 µM) | 1.56 (≈ 3.05 µM) | 6.25 (≈ 12.2 µM) | 1.56 (≈ 3.05 µM) | 0.1 (≈ 0.195 µM) | 0.1 (≈ 0.195 µM) | 12.5 (≈ 24.4 µM) | –
4 | CO/N=C(\C(=O)N[C@@H]1C(=O)N2C(C(=O)[O-])=C(C[N@+]3(C)CCC[C@H]3C(N)=O)CS[C@H]12)c1nsc(N)n1 [Example 2, 7β-[2-(5-Amino-1,2,4-thiadiazol-3-yl)-(Z)-2-methoxyiminoacetamido]-3-[(2S)-carbamoyl-(1S)-methylpyrrolidinio]methyl-3-cephem-4-carboxylate] | < 0.025 | 1.56 (≈ 2.97 µM) | 3.13 (≈ 5.97 µM) | 1.56 (≈ 2.97 µM) | 0.1 (≈ 0.191 µM) | 0.05 (≈ 0.0953 µM) | 12.5 (≈ 23.8 µM) | > 3000
5 | CO/N=C(\C(=O)N[C@@H]1C(=O)N2C(C(=O)[O-])=C(C[N@+]3(C)CCC[C@H]3C)CS[C@H]12)c1nsc(N)n1 [Example 3, 7β-[2-(5-Amino-1,2,4-thiadiazol-3-yl)-(Z)-2-methoxyiminoacetamido]-3-[(1S,2R)-dimethylpyrrolidinio]methyl-3-cephem-4-carboxylate] | 0.2 (≈ 0.404 µM) | 1.56 (≈ 3.15 µM) | 6.25 (≈ 12.6 µM) | 1.56 (≈ 3.15 µM) | 0.2 (≈ 0.404 µM) | 0.2 (≈ 0.404 µM) | 12.5 (≈ 25.2 µM) | > 3000
6 | CO/N=C(\C(=O)N[C@@H]1C(=O)N2C(C(=O)[O-])=C(C[N@+]3(C)CCC[C@H]3CO)CS[C@H]12)c1csc(N)n1 [Example 5, 7β-[2-(2-Aminothiazol-4-yl)-(Z)-2-methoxyiminoacetoamido]-3-[(2S)-hydroxymethyl-(1S)-methylpyrrolidinio]methyl-3-cephem-4-carboxylate] | 0.05 (≈ 0.0979 µM) | 0.8 (≈ 1.57 µM) | 12.5 (≈ 24.5 µM) | 3.13 (≈ 6.13 µM) | 0.1 (≈ 0.196 µM) | 0.05 (≈ 0.0979 µM) | 25 (≈ 49 µM) | > 3000
